Experimental findings from patent US4868321A, “Isothiocyanate intermediates” (FMC Corporation, priority 1988, dated 1989) are described below.

Common to all, as to assay type: in vivo
Test [1] deals with Cotton. Description: Preemergence Herbicidal Activity, Cotton. As to conditions: Gossypium hirsutum, pre-emergence; for plant injury at 8000 g/ha: 8.0 kg/ha. An excerpt: (§1) The herbicidal data in the following Tables 3 and 4 was obtained in the manner described in PCT published application no. WO 85/01939, previously mentioned, usually employing solutions of the herbicidal compound in 50/50 acetone/water mixtures. In those tables, the test compounds are identified by numbers which correspond to those in Table 1, "kg/ha" is kilograms per hectare, and "% C" is percent control.

Test [2] deals with Soybean. Description: Preemergence Herbicidal Activity, Soybean. The settings on record: Glycine max, pre-emergence; for plant injury at 8000 g/ha: 8.0 kg/ha. An excerpt: (§2) The herbicidal data in the following Tables 3 and 4 was obtained in the manner described in PCT published application no. […] In those tables, the test compounds are identified by numbers which correspond to those in Table 1, "kg/ha" is kilograms per hectare, and "% C" is percent control.

Test [3] relates to Field Corn. The test is described as follows: Preemergence Herbicidal Activity, Field Corn. As to conditions: Zea mays, pre-emergence; for plant injury at 8000 g/ha: 8.0 kg/ha.
Source text: as §2

Test [4] has as its system Rice. The test is described as follows: Preemergence Herbicidal Activity, Rice. As to conditions: Oryza sativa, pre-emergence.
Source text: as §2

In test [5] the test system is Wheat. Description: Preemergence Herbicidal Activity, Wheat. The settings on record: Triticum aestivum, pre-emergence; for plant injury at 8000 g/ha: 8.0 kg/ha.
Source text: as §2

In test [6] the test system is Field Bindweed. Description: Preemergence Herbicidal Activity, Field Bindweed. As to conditions: pre-emergence; for pest or weed control at 8000 g/ha: 8.0 kg/ha.
Source text: as §1

The test system of test [7] is Morningglory. The test is described as follows: Preemergence Herbicidal Activity, Morningglory. As to conditions: Ipomoea, pre-emergence; for pest or weed control at 8000 g/ha: 8.0 kg/ha.
Source text: as §1

For test [8], the system named is Velvetleaf. Description: Preemergence Herbicidal Activity, Velvetleaf. The settings on record: Abutilon theophrasti, pre-emergence; for pest or weed control at 8000 g/ha: 8.0 kg/ha.
Source text: as §1

Test [9] relates to Barnyardgrass. Description: Preemergence Herbicidal Activity, Barnyardgrass. The settings on record: Echinochloa crus-galli, pre-emergence; for pest or weed control at 8000 g/ha: 8.0 kg/ha.
Source text: as §2

Test [10] deals with Green Foxtail. The test is described as follows: Preemergence Herbicidal Activity, Green Foxtail. As to conditions: Setaria viridis, pre-emergence; for pest or weed control at 8000 g/ha: 8.0 kg/ha.
Source text: as §2

In test [11] the test system is Johnsongrass. The test is described as follows: Preemergence Herbicidal Activity, Johnsongrass. The settings on record: Sorghum halepense, pre-emergence; for pest or weed control at 8000 g/ha: 8.0 kg/ha.
Source text: as §2

In test [12] the test system is Cotton. The test is described as follows: Postemergence Herbicidal Activity, Cotton. The settings on record: Gossypium hirsutum, post-emergence; for plant injury at 8000 g/ha: 8.0 kg/ha.
Source text: as §1

In test [13] the test system is Soybean. Description: Postemergence Herbicidal Activity, Soybean. The settings on record: Glycine max, post-emergence; for plant injury at 8000 g/ha: 8.0 kg/ha.
Source text: as §2

The test system of test [14] is Field Corn. Description: Postemergence Herbicidal Activity, Field Corn. The settings on record: Zea mays, post-emergence; for plant injury at 8000 g/ha: 8.0 kg/ha.
Source text: as §2

For test [15], the system named is Rice. The test is described as follows: Postemergence Herbicidal Activity, Rice. The settings on record: Oryza sativa, post-emergence.
Source text: as §2

Test [16] has as its system Wheat. Description: Postemergence Herbicidal Activity, Wheat. The settings on record: Triticum aestivum, post-emergence; for plant injury at 8000 g/ha: 8.0 kg/ha.
Source text: as §2

For test [17], the system named is Field Bindweed. The test is described as follows: Postemergence Herbicidal Activity, Field Bindweed. As to conditions: post-emergence; for pest or weed control at 8000 g/ha: 8.0 kg/ha.
Source text: as §1

The test system of test [18] is Morningglory. The test is described as follows: Postemergence Herbicidal Activity, Morningglory. The settings on record: Ipomoea, post-emergence; for pest or weed control at 8000 g/ha: 8.0 kg/ha.
Source text: as §1

For test [19], the system named is Velvetleaf. Description: Postemergence Herbicidal Activity, Velvetleaf. The settings on record: Abutilon theophrasti, post-emergence; for pest or weed control at 8000 g/ha: 8.0 kg/ha.
Source text: as §1

Test [20] has as its system Barnyardgrass. The test is described as follows: Postemergence Herbicidal Activity, Barnyardgrass. As to conditions: Echinochloa crus-galli, post-emergence; for pest or weed control at 8000 g/ha: 8.0 kg/ha.
Source text: as §2

Test [21] concerns Green Foxtail. Description: Postemergence Herbicidal Activity, Green Foxtail. The settings on record: Setaria viridis, post-emergence; for pest or weed control at 8000 g/ha: 8.0 kg/ha.
Source text: as §2

In test [22] the test system is Johnsongrass. Description: Postemergence Herbicidal Activity, Johnsongrass. The settings on record: Sorghum halepense, post-emergence; for pest or weed control at 8000 g/ha: 8.0 kg/ha.
Source text: as §2

As for `CS(=O)(=O)Nc1cc(-n2nnn(CCCF)c2=O)c(F)cc1Cl` [Compound 2, 1-[4-chloro-2-fluoro-5-(N--methylsulfonylamino)phenyl]-1,4-dihydro-4-(3-fluoropropyl)-5H--tetrazol-5-one], the plant injury at 250 g/ha in the test on Cotton [1] (0.25 kg/ha) amounted to 95%; in the test on Soybean [2] (0.25 kg/ha) it was 20%; in the test with Field Corn [3] (0.25 kg/ha) it was 40%; with Rice [4] (0.25 kg/ha) it was 70%; with Wheat [5] (0.25 kg/ha), 10%; in the test on Cotton [12] (0.25 kg/ha), 100%. Also, the plant injury at 250 g/ha came to 50% with Soybean [13] (0.25 kg/ha), 80% with Field Corn [14] (0.25 kg/ha), 50% in the test with Rice [15] (0.25 kg/ha) and 20% with Wheat [16] (0.25 kg/ha). The pest or weed control at 250 g/ha amounted to 100% with Field Bindweed [6] (0.25 kg/ha); 100% in the test on Morningglory [7] (0.25 kg/ha); 100% in the test with Velvetleaf [8] (0.25 kg/ha); 60% in the test on Barnyardgrass [9] (0.25 kg/ha); 40% in the test on Green Foxtail [10] (0.25 kg/ha); 40% in the test on Johnsongrass [11] (0.25 kg/ha). For the same compound, the pest or weed control at 250 g/ha stood at 100% in the test on Field Bindweed [17] (0.25 kg/ha); 100% in the test with Morningglory [18] (0.25 kg/ha); 100% in the test with Velvetleaf [19] (0.25 kg/ha); 40% with Barnyardgrass [20] (0.25 kg/ha); 50% with Green Foxtail [21] (0.25 kg/ha); 50% with Johnsongrass [22] (0.25 kg/ha).

As for `CS(=O)(=O)N(c1cc(-n2nnn(CCCF)c2=O)ccc1Cl)S(C)(=O)=O` [Compound 6], the plant injury at 8000 g/ha was 70% with Cotton [1]; 30% in the test on Soybean [2]; 20% in the test with Field Corn [3]; 0% in the test with Wheat [5]; 90% in the test on Cotton [12]; 50% with Soybean [13]. The plant injury at 8000 g/ha with Field Corn [14] was 40%; with Rice [15] (8.0 kg/ha) it was 30%; in the test on Wheat [16] it was 20%. The pest or weed control at 8000 g/ha came to 20% with Field Bindweed [6]; 60% with Morningglory [7]; 95% with Velvetleaf [8]; 30% in the test with Barnyardgrass [9]; 30% in the test on Green Foxtail [10]; 20% in the test on Johnsongrass [11]. Besides, the pest or weed control at 8000 g/ha was determined as 70% with Field Bindweed [17]; 100% in the test on Morningglory [18]; 100% in the test on Velvetleaf [19]; 50% in the test with Barnyardgrass [20]; 50% in the test on Green Foxtail [21]; 20% in the test with Johnsongrass [22].

In the case of `CCS(=O)(=O)N(c1cc(-n2nnn(CCCF)c2=O)ccc1Cl)S(=O)(=O)CC` [Compound 18, 1-[4-chloro-3-[bis(N--ethylsulfonyl)-amino]phenyl]-1,4-dihydro-4-(3-fluoropropyl)-5H--tetrazol-5-one], the plant injury at 8000 g/ha amounted to 100% in the test with Cotton [1]; 10% in the test on Soybean [2]; 0% in the test with Field Corn [3]; 0% with Wheat [5]; 60% in the test with Cotton [12]; 60% with Soybean [13]. Besides, the values for the plant injury at 8000 g/ha in the test on Field Corn [14] and with Wheat [16] were 30% and 10%, respectively. The pest or weed control at 8000 g/ha in the test with Field Bindweed [6] was 30%; with Morningglory [7] it was 40%; in the test with Velvetleaf [8] it was 95%; with Barnyardgrass [9] it was 20%; in the test on Green Foxtail [10], 10%; with Johnsongrass [11], 40%. Besides, the pest or weed control at 8000 g/ha in the test on Field Bindweed [17] came out at 50%; in the test on Morningglory [18] it was 70%; in the test with Velvetleaf [19] it was 95%; in the test on Barnyardgrass [20] it was 30%; in the test on Green Foxtail [21] it was 30%; in the test with Johnsongrass [22], 30%.

Take `CCCS(=O)(=O)N(c1cc(-n2nnn(CCCF)c2=O)ccc1Cl)S(=O)(=O)CCC` [Compound 23]: the plant injury at 8000 g/ha with Cotton [1] stood at 30%; in the test on Soybean [2], 10%; with Field Corn [3], 90%; in the test with Rice [4] (8.0 kg/ha) it was 20%; in the test with Wheat [5] it was 40%; with Cotton [12] it was 60%. Also, the figures for the plant injury at 8000 g/ha with Soybean [13], with Field Corn [14] and in the test on Wheat [16] were 40%, 30% and 20%, respectively. The pest or weed control at 8000 g/ha with Field Bindweed [6] is 70%; in the test on Morningglory [7] it was 70%; with Velvetleaf [8] it was 100%; in the test on Barnyardgrass [9], 80%; in the test on Green Foxtail [10], 95%; in the test on Johnsongrass [11], 50%. Also, the pest or weed control at 8000 g/ha in the test with Field Bindweed [17] was 50%; with Morningglory [18], 60%; in the test with Velvetleaf [19], 100%; in the test with Barnyardgrass [20], 40%; in the test on Green Foxtail [21] it was 40%; in the test with Johnsongrass [22], 40%.

Take `CCS(=O)(=O)Nc1cc(-n2nnn(C)c2=O)c(F)cc1Cl` [Compound 43, 1-[4-Chloro-2-fluoro-5-(N--ethylsulfonylamino)phenyl]-4,5-dihydro-4-methyl-5H--tetrazol-5-one]: the plant injury at 2000 g/ha came to 100% in the test with Cotton [12] (2.0 kg/ha); 50% with Soybean [13] (2.0 kg/ha); 30% in the test on Field Corn [14] (2.0 kg/ha); 50% with Rice [15] (2.0 kg/ha); 50% in the test with Wheat [16] (2.0 kg/ha). Moreover, the pest or weed control at 2000 g/ha stood at 100% in the test on Field Bindweed [17] (2.0 kg/ha); 100% with Morningglory [18] (2.0 kg/ha); 95% with Velvetleaf [19] (2.0 kg/ha); 50% in the test on Barnyardgrass [20] (2.0 kg/ha); 40% with Green Foxtail [21] (2.0 kg/ha); 70% in the test with Johnsongrass [22] (2.0 kg/ha).
